Results published in patent US6680323B2, “Dihydropyrimidines and uses thereof” (Synaptic Pharmaceutical Corporation, priority 1998, dated 2004).
Where a name gives a salt, the structure may show the parent alone.

What was measured:
human α2c receptor = biological target: T1, human α2c receptor (Homo sapiens, UniProt P18825); test: Competition binding ([3H]rauwolscine) at cloned human α2c receptor; details: transfected LM(tk−) cells, [3H]rauwolscine 0.5 nM; read-out: Binding affinity hα2c
T1 construct: expressed in transfected cells
T1 sequence (P18825 1-462): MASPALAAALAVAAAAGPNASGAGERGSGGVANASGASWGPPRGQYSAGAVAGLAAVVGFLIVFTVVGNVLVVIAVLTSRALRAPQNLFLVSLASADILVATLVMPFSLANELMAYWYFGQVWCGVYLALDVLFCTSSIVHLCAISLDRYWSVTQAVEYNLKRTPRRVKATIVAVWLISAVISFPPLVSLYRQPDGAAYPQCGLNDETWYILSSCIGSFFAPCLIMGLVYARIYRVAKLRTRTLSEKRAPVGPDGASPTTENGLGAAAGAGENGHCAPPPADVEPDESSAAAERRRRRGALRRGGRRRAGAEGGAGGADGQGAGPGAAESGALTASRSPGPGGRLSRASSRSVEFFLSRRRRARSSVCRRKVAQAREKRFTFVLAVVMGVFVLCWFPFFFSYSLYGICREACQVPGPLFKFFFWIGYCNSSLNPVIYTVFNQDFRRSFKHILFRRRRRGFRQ
Source text: α2 Human Adrenergic Receptors
To determine the potency of α1 antagonists at the α2 receptors, LM(tk−) cell lines stably transfected with the genes encoding the α2a, α2b, and α2c receptors were used. The cell line expressing the α2a receptor is designated L-α2A, and was deposited on Nov. 6, 1992 under ATCC Accession No. CRL 11180. The cell line expressing the α2b receptor is designated L-NGC-α2B, and was deposited on Oct. 25, 1989 under ATCC Accession No. CRL10275. The cell line expressing the α2c receptor is designated L-α2C, and was deposited on Nov. 6, 1992 under ATCC Accession No. CRL-11181. All the cell lines were deposited with the American Type Culture Collection, 12301 Parklawn Drive, Rockville, Md. 20852, U.S.A. under the provisions of the Budapest Treaty for the International Recognition of the Deposit of Microorganisms for the Purposes of Patent Procedure. Cell lysates were prepared as described above (see Radioligand Binding Assays), and suspended in 25 mM glycylglycine buffer (pH 7.6 at room temperature). Equilibrium competition binding assay were performed using [3H]rauwolscine (0.5 nM), and nonspecific binding was determined by incubation with 10 μM phentolamine. The bound radioligand was separated by filtration through GF/B filters using a cell harvester.

human α1b receptor = biological target: T2, human α1b receptor (Homo sapiens, UniProt P35368); test: Radioligand binding ([3H]prazosin) at cloned human α1b receptor; details: membranes of transfected LM(tk−) cells, [3H]prazosin 0.5 nM; read-out: Binding affinity hα1b
T2 construct: The entire coding region of α1b (1563 bp); expressed in transfected cells
T2 sequence (P35368 1-520): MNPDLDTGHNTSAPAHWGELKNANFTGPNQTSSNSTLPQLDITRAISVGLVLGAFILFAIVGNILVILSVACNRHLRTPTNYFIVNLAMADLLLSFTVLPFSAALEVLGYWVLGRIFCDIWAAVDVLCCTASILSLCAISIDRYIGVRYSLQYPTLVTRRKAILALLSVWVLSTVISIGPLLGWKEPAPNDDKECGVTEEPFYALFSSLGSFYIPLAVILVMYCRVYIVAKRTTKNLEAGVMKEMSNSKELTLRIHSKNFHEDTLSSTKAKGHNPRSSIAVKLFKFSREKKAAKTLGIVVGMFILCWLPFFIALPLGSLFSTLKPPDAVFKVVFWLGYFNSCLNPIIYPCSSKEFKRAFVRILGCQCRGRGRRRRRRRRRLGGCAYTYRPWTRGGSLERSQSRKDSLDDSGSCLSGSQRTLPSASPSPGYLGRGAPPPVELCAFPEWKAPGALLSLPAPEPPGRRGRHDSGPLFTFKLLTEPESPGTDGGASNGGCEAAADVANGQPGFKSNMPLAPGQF
Experimental: The activity of compounds at the different human receptors was determined in vitro using cultured cell lines that selectively express the receptor of interest. These cell lines were prepared by transfecting the cloned cDNA or cloned genomic DNA or constructs containing both genomic DNA and cDNA encoding the human α-adrenergic receptors as follows:
α1b Human Adrenergic Receptor
The entire coding region of α1b (1563 bp), including 200 base pairs and 5′ untranslated sequence (5′ UT) and 600 bp of 3′ untranslated sequence (3′ UT), was cloned into the EcoRI site of pCEXV-3 eukaryotic expression vector.
The construct involved ligating the full-length containing EcoRI brainstem cDNA fragment from λ ZapII into the expression vector. Stable cell lines were selected as described above. The cell line used herein was designated L-α1B and was deposited with the American Type Culture Collection, 12301 Parklawn Drive, Rockville, Md. 20852, U.S.A. under the provisions of the Budapest Treaty for the International Recognition of the Deposit of Microorganisms for the Purposes of Patent Procedure. The cell line L-α1B was accorded ATCC Accession No. CR 11139, on Sep. 29, 1992.
Radioligand Binding Assays for α1 Receptors
Transfected cells from culture flasks were scraped into 5 ml of 5 mM Tris-HCl, 5 mM EDTA, pH 7.5, and lysed by sonication. The cell lysates were centrifuged at 1000 rpm for 5 min at 4° C., and the supernatant was centrifuged at 30,000×g for 20 min at 4° C. The pellet was suspended in 50 mM Tris-HCl, 1 mM MgCl2, and 0.1% ascorbic acid at pH 7.5. Binding of the α1 antagonist [^3H]prazosin (0.5 nM, specific activity 76.2 Ci/mmol) to membrane preparations of LM(tk−) cells was done in a final volume of 0.25 ml and incubated at 37° C. for 20 min. Nonspecific binding was determined in the presence of 10 μM phentolamine. The reaction was stopped by filtration through GF/B filters using a cell harvester. Inhibition experiments, routinely consisting of 7 concentrations of the tested compounds, were analyzed using a non-linear regression curve-fitting computer program to obtain Ki values.

SMILES | Ki (human α2c receptor) [µM] | Ki (human α1b receptor) [µM]
O=C1OCC2=C1C(c1ccc(F)c(F)c1)N(C(=O)NCCCN1CCC(c3ccccn3)CC1)C(=O)N2 (single isomer, unassigned; (+)) [Compound 8, (+)-1-3-{[4-(3,4-Difluorophenyl)-2,5-dioxo-1,2,5,7-tetrahydro-4H-furo[3,4-d]-pyrimidine-3-carbonyl]amino}-propyl-4-(2-pyridyl)-piperidine] | 1.5 | 1.6
COCC1=C(C(=O)OC)[C@H](c2ccc(F)c(F)c2)N(C(=O)NCCCO)C(=O)N1 [Compound 1, (+)-1,2,3,6-Tetrahydro-1-(3-hydroxypropyl)carboxamido-5-methoxycarbonyl-4-methoxymethyl-6-(3,4-difluorophenyl)-2-oxo-pyrimidine] | > 50 | > 50
COCC1=C(C(=O)OC)[C@H](c2ccc(F)c(F)c2)N(C(=O)NCCCN2CCC(c3cccc[n+]3[O-])CC2)C(=O)N1 [Compound 2, (+)-1,2,3,6-Tetrahydro-1-{N-[4-(2-pyridyl)piperidin-1-yl]propyl}carboxamido-5-methoxycarbonyl-4-methoxymethyl-6-(3,4-difluorophenyl)-2-oxopyrimidine-pyridine-N-oxide hydrochloride] | 1.5 | 1.5
COCC1=C(C(=O)OC)[C@H](c2ccc(F)c(F)c2)N(C(=O)NCCC[n+]2ccc(-c3ccccn3)cc2)C(=O)N1 [Compound 3, 4-(2-Pyridyl)-1-{3-[5-carboxymethyl-4-methoxymethyl-2-oxo-6(S)-(3,4-difluorphenyl)-1,2,3,6-tetrahydropyrimidin-1-yl]carboxyaminopropyl}pyridinium chloride] | 3.39 | > 2
COC(=O)C1=C(CO)NC(=O)N(C(=O)NCCCN2CCC(c3ccccn3)CC2)[C@H]1c1ccc(F)c(F)c1 [Compound 7, (+)-1,2,3,6-Tetrahydro-1-{N-[4-(2-pyridyl)piperidin-1-yl]propyl}carboxamido-5-methoxycarbonyl-4-hydroxymethyl-6-(3,4-difluorophenyl)-2-oxopyrimidine] | 0.26 | 0.53
O=C(O)CCNC(=O)N1C(=O)NC2=C(C(=O)OC2)[C@@H]1c1ccc(F)c(F)c1 [Compound 9] | > 50 | > 2
